Measurements published in patent publication US20230048366A1, “COMBINATION THERAPY FOR TREATING OR PREVENTING CANCER” (4D Pharma Research Limited, priority 2018, published 2023).

Legend:
RENCA tumour cells = experiment: Antitumor activity, RENCA model (tumour volume); format: in vivo, mouse; conditions: D18 and D22, compared to untreated and vehicle groups, FIG. 3B
Description: Treatment schedule—The start of first dosing was considered as D0. On D0, non-engrafted mice were randomized according to their individual body weight into groups of 9 mice using Vivo Manager® software (Biosystemes, Couternon, France). On D0, the mice received vehicle (culture medium) or bacterial strain (2×10^8 in 200 μL, PO). On D14, all mice were engrafted with RENCA tumour cells injected SC into the ventral surface of the lower flank as described below. Treatment with anti-CTLA-4 (10 mg/kg, IP) and anti-PDL1 (clone 10F.9G2, 10 mg/kg) was initiated when tumours reached a volume of 50-70 mm3.
Orthotopic induction of RENCA tumor cells in animals by SC injection—On D14, one million (1×10^6) RENCA tumor cells in 50 μL RPMI 1640 medium were transplanted via SC injection into the ventral surface of the lower flank of mice.
Euthanasia—Each mouse was euthanized when it reached a humane endpoint as described in section below, or after a maximum of 6 weeks post start of dosing.
Evaluation of tumour burden at euthanasia—At the time of termination, tumours were collected and their volume evaluated.
Clinical monitoring—The length and width of the tumour was measured twice a week with callipers and the volume of the tumour was estimated by this formula [52]: […]

immature dendritic cells = experiment: Cytokine production in immature dendritic cells; format: cell-based; conditions: MRX518 10^7/ml, LPS 100 ng/ml
Description: This study tested the effect of the bacterial strain MRX518 alone and in combination with lipopolysaccharide (LPS) on cytokine production in immature dendritic cells.
A monocyte population was isolated from peripheral blood mononuclear cells (PBMCs). The monocyte cells were subsequently differentiated into immature dendritic cells. The immature dendritic cells were plated out at 200,000 cells/well and incubated with MRX518 at a final concentration of 10^7/ml, with the optional addition of LPS at a final concentration of 100 ng/ml. The negative control involved incubating the cells with RPMI media alone and positive controls incubated the cells with LPS at a final concentration of 100 ng/ml. The cytokine content of the cells was then analysed.

[1] = compared to the negative control, FIGS. 4a-d

Molecule | tumour size (RENCA tumour cells) | level of IL-1β (immature dendritic cells; FIGS. 4b, 4d) | level of IL-6 (immature dendritic cells; [1]) | level of TNF-α (immature dendritic cells; [1])
CC(=O)O[C@H]1C(=O)[C@@]2(C)[C@H]([C@H](OC(=O)c3ccccc3)[C@]3(O)C[C@H](OC(=O)[C@H](O)[C@@H](NC(=O)c4ccccc4)c4ccccc4)C(C)=C1C3(C)C)[C@]1(OC(C)=O)CO[C@@H]1C[C@@H]2O [Paclitaxel] | (almost) complete reduction in tumour size | – | – | –
lipopolysaccharide [LPS] | – | not IL-1β | increase | increase
